The values below come from patent US8173639B2, “Isoquinolinone derivatives as NK3 antagonists” (H. Lundbeck A/S, priority 2007, dated 2012).

The structures appear in SMILES notation.

The target in assay [1] is T1, human NK3 receptor (Homo sapiens, UniProt P29371).
T1 construct: expressed in transfected cells; membrane preparation
T1 sequence (P29371 1-465): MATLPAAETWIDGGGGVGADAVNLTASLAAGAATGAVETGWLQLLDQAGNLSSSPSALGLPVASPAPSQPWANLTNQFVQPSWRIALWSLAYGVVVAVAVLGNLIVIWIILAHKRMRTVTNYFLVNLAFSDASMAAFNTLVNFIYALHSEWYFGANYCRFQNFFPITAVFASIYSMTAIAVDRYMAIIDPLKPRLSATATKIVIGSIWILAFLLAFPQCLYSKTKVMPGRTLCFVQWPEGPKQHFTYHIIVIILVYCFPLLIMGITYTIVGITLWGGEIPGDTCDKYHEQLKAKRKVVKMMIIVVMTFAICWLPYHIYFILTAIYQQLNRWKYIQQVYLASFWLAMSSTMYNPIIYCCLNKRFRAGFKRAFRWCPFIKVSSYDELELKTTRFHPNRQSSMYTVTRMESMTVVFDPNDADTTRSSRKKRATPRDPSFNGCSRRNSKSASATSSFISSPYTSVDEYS
The experiment in a line: NK3 receptor binding assay (SPA-based competition binding, 125I-NKB). To be noted: table of Example 10; obtained as described in Example 9; read-out: Affinity Ki. The method, then:
Membranepreparation: BHK cells stably expressing the human NK3 receptor were seeded in harvesting plates in Dulbeccos MEM containing GlutaMax (862 mg/l), 1 mM sodium pyruvate, 10% fetal calf serum, 1% Pen/Strep, 1 mg/ml G418 and were grown at 34° C. in a humidified atmosphere containing 10% CO2. To increase receptor expression, 10 μM trichotatin A was added to the media 24 hours before harvest of the cells at a confluency of app 90%. Prior to the harvesting, the cells were washed twice with PBS without Mg^2+ or Ca^2+ and subsequently scrapped of in 10 ml PBS pr harvesting plate. The cells suspension were centrifuged at 1500×G in three minutes before resuspension in 15 mM Tris-HCl pH 7.5 buffer containing 2 mM MgCl2; 0.3 mM EDTA and 1 mM EGTA (buffer A). The cell suspension was homogenised and subsequently centrifuged at 4000×G in 30 minutes. The membrane-pellet was resuspended in buffer A containing 250 mM sucrose, aliquoted and stored at −80° C.
Affinity assay description: The assay was performed as a SPA-based competition-binding assay in a 50 mM Tris pH 7.4 assay buffer containing 120 mM NaCl, 3 mM MnCl2, 40 μg/ml bacitracin, 2 μg/ml Chymostatin, 1 μg/ml Phosphoramidon and 4 μg/ml Leupeptin. […] The assay plate was subsequently under agitation incubated for 90 min at RT. The plate was centrifugated 10 minutes at 500×G and counted in a topcounter 5 minutes pr well.

Assay [2] concerns the target T1, human NK3 receptor. Briefly: NK3 receptor efficacy and potency assay (FLIPR Calcium 4, BHK cells). The assay is classed as cell-based. To be noted: read-out: Potency cIC50. The protocol: BHK cells stably expressing the human NK3 receptor were seeded in 100 μl media in black walled clear-base 96-wells plates (Costar) aiming at a confluency of 95-100% at the day of assay. The assay was performed according to the FLIPR Calcium 4 Assay kit (Molecular Devices). At the day of the assay, the media was removed and the cells were washed once with the HBSS buffer (Hanks BSS buffer, pH 7.4 containing 20 mM Hepes) before 100 μl of a solution of the calcium assay reagent dissolved in the HBSS buffer containing 2.5 mM probinicid was added to the cells. The plates were incubated for 60 min at 34° C., 10% CO2 before use in the FLIPR for examination of fluorescence.
For efficacy and potency evaluation of compounds, these were diluted in HBSS buffer prior to test. For test of agonist activity, 25 μl of the diluted compound solution was added and the plate was analyzed for 5 minutes in the FLIPR. […] The plates were subsequently analyzed for 5 minutes before the assay was terminated. The maximal increase in fluorescence over background following each ligand addition was determined.

For assay [3] the following is noted: cited from earlier work.

Broadly, the Ki is the equilibrium dissociation constant of an inhibitor or competing ligand from its target. On to `CC[C@H](NC(=O)c1c(CN2CCc3ccccc3C2)n(-c2ccccc2)c(=O)c2ccccc12)c1ccccc1` [Example 2bg, 3-(3,4-Dihydro-1H-isoquinolin-2-ylmethyl)-1-oxo-2-phenyl-1,2-dihydro-isoquinoline-4-carboxylic acid ((S)-1-phenyl-propyl)-amide], for which the Ki at human NK3 receptor [1] turned out to be 160 nM. In addition, the IC50 on human NK3 receptor [2] was determined as 220 nM. Take `CC[C@H](NC(=O)c1c(CN2Cc3ccccc3C2)n(-c2ccccc2)c(=O)c2ccccc12)c1ccccc1` [Example 2bn, 3-(1,3-Dihydro-isoindol-2-ylmethyl)-1-oxo-2-phenyl-1,2-dihydro-isoquinoline-4-carboxylic acid ((S)-1-phenyl-propyl)-amide]: the Ki on human NK3 receptor [1] stood at 160 nM. Also, the IC50 on human NK3 receptor [2] turned out to be 300 nM. Turning to `CC[C@H](NC(=O)c1c(CN2CCCNCC2)n(-c2ccccc2)c(=O)c2ccccc12)c1ccccc1` [Example 2cz, 3-[1,4]Diazepan-1-ylmethyl-1-oxo-2-phenyl-1,2-dihydro-isoquinoline-4-carboxylic acid ((S)-1-phenyl-propyl)-amide], the Ki on human NK3 receptor [1] is 76 nM. Further, on human NK3 receptor [2], the IC50 stood at 49 nM. On to `CC[C@H](NC(=O)c1c(CN2CCOCC2)n(-c2ccccc2)c(=O)c2ccccc12)c1ccccc1` [Example 2r, 3-Morpholin-4-ylmethyl-1-oxo-2-phenyl-1,2-dihydro-isoquinoline-4-carboxylic acid ((S)-1-phenyl-propyl)-amide], for which the Ki on human NK3 receptor [1] is 320 nM. Besides, the IC50 on human NK3 receptor [2] was 420 nM. Consider `CC[C@H](NC(=O)c1c(CN2CC(C)OC(C)C2)n(-c2ccccc2)c(=O)c2ccccc12)c1ccccc1` (stereo partly drawn) [Example 2s, 3-(2,6-Dimethyl-morpholin-4-ylmethyl)-1-oxo-2-phenyl-1,2-dihydro-isoquinoline-4-carboxylic acid ((S)-1-phenyl-propyl)-amide], for which, at human NK3 receptor [1], the inhibitory constant (Ki) is 200 nM. For the same molecule, at human NK3 receptor [2], the IC50 worked out at 340 nM. Take `CC(=O)N(C)C1(c2ccccc2)CCN(CCC[C@]2(c3ccc(Cl)c(Cl)c3)CCCN(C(=O)c3ccccc3)C2)CC1` [Osanetant, osanetant]: the “effect in clinical trials versus placebo” value in assay [3] (in particular on positive symptoms of psychosis) is reported as “superior to placebo”. With `CC[C@H](NC(=O)c1c(O)c(-c2ccccc2)nc2ccccc12)c1ccccc1` [talnetant], the “effect on cognitive behaviour in clinical trials” value in assay [3] (schizophrenics) is “ameliorate the cognitive behaviour of schizophrenics”.
